Test results as given in patent US5508424A, “4-arylisoindole analgesics” (Ortho Pharmaceutical Corporation, priority 1993, dated 1996).
Read-outs that look alike come from different tables or passages of the source.

System: Acetylcholine-Bromide Induced Abdominal Constriction
Assay: Mouse Acetylcholine Bromide-Induced Abdominal Constriction Assay
Type: in vivo
Conditions: for ED50: po, dose producing 50% analgesia, probit analysis; for inhibition in vivo at 30 mg/kg: @ 30 mpk/po
Procedure: Mouse Acetylcholine Bromide-Induced Abdominal Constriction Assay
The mouse acetylcholine-induced abdominal constiction assay, as described by Collier et al. in Brit. J. Pharmacol. Chem. Ther., 32: 295-310, 1968, with minor modifications was used to assess analgesic potency of the compounds of formula (I). The test drugs or appropriate vehicle were administered orally (p.o.) and 30 minutes later the animal received an intraperitoneal (i.p.) injection of 5.5 mg/kg acetylcholine bromide (Matheson, Coleman and Bell, East Rutherford, N.J.). The mice were then placed in groups of three into glass bell jars and observed for a ten minute observation period for the occurrence of an abdominal constriction response (defined as a wave of constriction and elongation passing caudally along the abdominal wall, accompanied by a twisting of the trunk and followed by extension of the hind limbs). The percent inhibition of this response to a nociceptive stimulus (equated to % analgesia) was calculated as follows: The % Inhibition of response, i.e., % analgesia is equal to the difference between the No. of control animals response and the No. of drug-treated animals response times 100 divided by the No. of control animals responding.
At least 15 animals were used for control and in each of the drug treated groups. At least three doses were used to determine each dose response curve and ED50 (that dose which would produce 50% analgesia). The ED50 values and their 95% fiducial limits were determined by a computer assisted probit analysis.

[1] = Mus musculus, 0.5 h, acetylcholine bromide 5.5 mg/kg i.p. 30 min after drug, % analgesia

Compound	ED50 (Mus musculus, read-out: ED50)	inhibition in vivo at 30 mg/kg [1]	further results
Clc1ccc([C@H]2CCC[C@H]3CNC[C@H]32)cc1Cl (relative stereo) [Cp-35, 4β-(3,4-dichlorophenyl)-3aα,7aα-octahydro-1H-isoindole]	9.63 mg/kg	–	–
CN1C[C@H]2CCC[C@@H](c3ccc(C(F)(F)F)cc3)[C@@H]2C1 (relative stereo) [Cp-16]	4.6 mg/kg	–	–
CN1C[C@H]2CCC[C@@H](c3cccc(C(F)(F)F)c3)[C@@H]2C1 (relative stereo) [Cp-7, 3aα, 4α,7aβ-Octahydro-2-methyl-4-(3-trifluoromethylphenyl)-1H-isoindole Monofumarate]	7.46 mg/kg	–	–
COc1cccc([C@@H]2CCC[C@H]3CN(C)C[C@H]32)c1 (relative stereo) [Cp-1]	–	30 to 40%	–
COc1cccc([C@@H]2CCC[C@H]3CN(C)C[C@H]32)c1OC (relative stereo) [Cp-8]	–	78.8%	–
CN1C[C@@H]2CCC[C@H](c3ccc(Br)cc3)[C@@H]2C1 (relative stereo) [Cp-44, 4β-bromophenyl-2-methyl-3aα,7aα-octahydro-1H-isoindole]	9.15 mg/kg	–	–
Cc1cccc(C2CCCC3CN(C)CC32)c1.O=C(O)/C=C/C(=O)O (single isomer, unassigned; (-)) [Cp-24-, (-)3aα,7aβ Octahydro-2-methyl-4α-(3-methylphenyl)-1H-isoindole Monofumarate]	–	–	ED50: 24.9 mpk
CN1C[C@@H]2CCC[C@@H](c3ccc(Br)cc3)[C@@H]2C1 (relative stereo) [Cp-34]	–	100%	–
COc1cccc([C@@H]2CCC[C@@H]3CN(Cc4ccccc4)C[C@H]32)c1 (relative stereo) [Cp-6]	–	13.3%	–
CCCCN1CC2CCCC(c3cccc(C(F)(F)F)c3)C2C1 (stereo not shown) [Cp-18]	–	66.7%	–
FC(F)(F)c1ccc([C@H]2CCC[C@@H]3CN(CCC(c4ccccc4)c4ccccc4)C[C@H]32)cc1 (relative stereo) [Cp-22]	–	13.3%	–
Cc1cccc([C@@H]2CCC[C@@H]3CN(C)C[C@H]32)c1 (relative stereo) [Cp-24, 3aα,7aβ Octahydro-2-methyl-4α-(3-methylphenyl)-1H-isoindole Monofumarate]	23.6 mg/kg	–	–
Cc1cccc([C@@H]2CCC[C@@H]3CN(C)C[C@@H]32)c1.O=C(O)/C=C/C(=O)O [Cp-24+, (+)3aα,4α,7aβ Octahydro-2-methyl-4-(3-methylphenyl)-1H-isoindole Monofumarate]	–	–	ED50: 21.6 mpk
CN1C[C@H]2CCC[C@H](c3ccc(Cl)c(Cl)c3)[C@@H]2C1 (relative stereo) [Cp-14]	2.8 mg/kg	–	–
CN1C[C@H]2CCC[C@H](c3ccc(C(F)(F)F)cc3)[C@@H]2C1 (relative stereo) [Cp-17]	–	–	inhibition in vivo at 3 mg/kg (Mus musculus, 0.5 h, @ 3 mpk/po, acetylcholine bromide 5.5 mg/kg i.p. 30 min after drug, % analgesia): 33%
CN1C[C@H]2CCC[C@@H](c3ccc(Cl)c(Cl)c3)[C@@H]2C1 (relative stereo) [Cp-15]	7 mg/kg	–	–
CN1C[C@@H]2CCC[C@H](c3ccccc3)[C@@H]2C1 (relative stereo) [Cp-43]	4.9 mg/kg	–	–
CN1C[C@@H]2CCC[C@H](c3ccc(Cl)c(Cl)c3)[C@@H]2C1 (relative stereo) [Cp-46]	–	100%	–
CN1C[C@H]2CCC[C@@H](c3ccccc3)[C@@H]2C1 (relative stereo) [Cp-13]	8.35 mg/kg	–	–
